Read-outs that look alike come from different tables or passages of the source.
Legend:
JAK1 = JAK1 (Homo sapiens (Human), UniProt P23458); assay: Jak Biochemical HTRF Assay, JAK1; conditions: read-out: JAK1 IC50
Description: (§1) Jak Biochemical HTRF Assay Protocol
(§2) Subsequent reagent additions employed an Agilent Bravo.

JAK2 = JAK2 (Homo sapiens (Human), UniProt O60674); assay: Jak Biochemical HTRF Assay, JAK2
Description: as §1, §2

[1] = HTRF biochemical assay, GST-tagged catalytic domain, top concentration tested […]

Chain of JAK1 (P23458 875-1153): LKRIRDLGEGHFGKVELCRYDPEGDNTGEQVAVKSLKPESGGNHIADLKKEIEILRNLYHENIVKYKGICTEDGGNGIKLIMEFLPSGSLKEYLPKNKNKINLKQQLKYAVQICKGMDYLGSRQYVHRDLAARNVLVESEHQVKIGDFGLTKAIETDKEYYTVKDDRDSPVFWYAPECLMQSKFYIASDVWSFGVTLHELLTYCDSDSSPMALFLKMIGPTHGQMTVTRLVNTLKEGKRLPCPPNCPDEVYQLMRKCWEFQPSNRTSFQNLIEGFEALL
Chain of JAK2 (O60674 849-1124): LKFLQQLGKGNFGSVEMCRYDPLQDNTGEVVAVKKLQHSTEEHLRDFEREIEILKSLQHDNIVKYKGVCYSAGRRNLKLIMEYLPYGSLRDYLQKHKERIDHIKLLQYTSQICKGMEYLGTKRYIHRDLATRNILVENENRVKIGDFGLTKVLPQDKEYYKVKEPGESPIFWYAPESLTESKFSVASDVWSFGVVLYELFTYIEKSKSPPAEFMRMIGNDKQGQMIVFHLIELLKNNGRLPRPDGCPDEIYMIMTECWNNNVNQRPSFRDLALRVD

Row | SMILES | IC50 (JAK1; [1]) [nM] | IC50 (JAK2; [1]) [nM] | IC50 (JAK1) [nM] | IC50 (JAK2) [nM]
1 | N#CCC1(n2cc(C(N)=O)c(Nc3ccnc(F)c3)n2)CCC(Nc2ccc(F)c(F)c2)CC1 (stereo not drawn) [Example 40-36, Cis or trans 1-{1-(cyanomethyl)-4-[(3,4-difluorophenyl)amino]cyclohexyl}-3-[(2-fluoropyridin-4-yl)amino]-1H-pyrazole-4-carboxamide] | 65 | > 1500 |  | 
2 | N#CCC1(n2cc(C(N)=O)c(Nc3ccnc(F)c3)n2)CCC(Nc2ccc(F)cc2F)CC1 (stereo not drawn) [Example 40-37, Cis or trans 1-{1-(cyanomethyl)-4-[(2,4-difluorophenyl)amino]cyclohexyl}-3-[(2-fluoropyridin-4-yl)amino]-1H-pyrazole-4-carboxamide] | 16 | 506 |  | 
3 | N#CCC1(n2cc(C(N)=O)c(Nc3ccc(F)cc3)n2)CCC(Nc2cccnc2)CC1 (stereo not drawn) [Example 40-39, Cis or trans 1-[1-(cyanomethyl)-4-(pyridin-3-ylamino)cyclohexyl]-3-[(4-fluorophenyl)amino]-1H-pyrazole-4-carboxamide] | 30 | 760 |  | 
4 | N#CCC1(n2cc(C(N)=O)c(Nc3ccnc(F)c3)n2)CCC(Nc2ccc(F)cc2)CC1 (stereo not drawn) [Example 40-40, Cis or trans 1-{1-(cyanomethyl)-4-[(4-fluorophenyl)amino]cyclohexyl}-3-[(2-fluoropyridin-4-yl)amino]-1H-pyrazole-4-carboxamide] | 0.2 | 9 |  | 
5 | N#CCC1(n2cc(C(N)=O)c(Nc3ccc(F)cc3)n2)CCC(N2CCC(O)CC2)CC1 (stereo not drawn) [Example 40-41, Cis or trans 1-[1-(cyanomethyl)-4-(4-hydroxypiperidin-1-yl)cyclohexyl]-3-[(4-fluorophenyl)amino]-1H-pyrazole-4-carboxamide] | 584 | > 1500 |  | 
6 | N#CCC1(n2cc(C(N)=O)c(Nc3ccc(S(=O)(=O)C(F)F)cc3)n2)CCC(N2CCC(F)(F)CC2)CC1 (stereo not drawn) [Example 40-42, Cis or trans 1-[1-(cyanomethyl)-4-(4,4-difluoropiperidin-1-yl)cyclohexyl]-3-({4-[(difluoromethyl)sulfonyl]phenyl}amino)-1H-pyrazole-4-carboxamide] | 64 | 775 |  | 
7 | N#CCC1(n2cc(C(N)=O)c(Nc3ccc(S(=O)(=O)C(F)F)cc3)n2)CCC(N2CCC(O)CC2)CC1 (stereo not drawn) [Example 40-43, Cis or trans 1-[1-(cyanomethyl)-4-(4-hydroxypiperidin-1-yl)cyclohexyl]-3-({4-[(difluoromethyl)sulfonyl]phenyl}amino)-1H-pyrazole-4-carboxamide] | 0.3 | 14 |  | 
8 | N#CCC1(n2cc(C(N)=O)c(Nc3ccc(S(=O)(=O)C(F)F)cc3)n2)CCC(Nc2cccc(O)c2)CC1 (stereo not drawn) [Example 40-44, Cis or trans 1-{1-(cyanomethyl)-4-[(3-hydroxyphenyl)amino]cyclohexyl}-3-({4-[(difluoromethyl)sulfonyl]phenyl}amino)-1H-pyrazole-4-carboxamide] |  |  | 0.1 | 0.8
9 | N#CCC1(n2cc(C(N)=O)c(Nc3ccnc(F)c3)n2)CCC(Nc2ccc(Cl)cc2)CC1 (stereo not drawn) [Example 40-45, Cis or trans 1-{4-[(4-chlorophenyl)amino]-1-(cyanomethyl)cyclohexyl}-3-[(2-fluoropyridin-4-yl)amino]-1H-pyrazole-4-carboxamide] | 38 | 770 |  | 
10 | N#CCC1(n2cc(C(N)=O)c(Nc3ccnc(F)c3)n2)CCC(Nc2ccc(F)cc2)CC1 (stereo not drawn) [Example 40-47, Cis or trans 1-{1-(cyanomethyl)-4-[(4-fluorophenyl)amino]cyclohexyl}-3-[(2-fluoropyridin-4-yl)amino]-1H-pyrazole-4-carboxamide] | 215 | > 1500 |  | 
11 | N#CCC1(n2cc(C(N)=O)c(Nc3ccc(F)cc3)n2)CCC(N2CCc3ccccc32)CC1 (stereo not drawn) [Example 40-49, Cis or trans 1-[1-(cyanomethyl)-4-(2,3-dihydro-1H-indol-1-yl)cyclohexyl]-3-[(4-fluorophenyl)amino]-1H-pyrazole-4-carboxamide] | 5 | 137 |  | 
12 | N#CCC1(n2cc(C(N)=O)c(Nc3ccnc(F)c3)n2)CCC(NC2CCCCC2)CC1 (stereo not drawn) [Example 40-51, Cis or trans 1-[1-(cyanomethyl)-4-(cyclohexylamino)cyclohexyl]-3-[(2-fluoropyridin-4-yl)amino]-1H-pyrazole-4-carboxamide] | 598 | > 1500 |  | 
13 | N#CCC1(n2cc(C(N)=O)c(Nc3ccc(F)cc3)n2)CCC(Nc2ccc(Cl)cc2)CC1 (stereo not drawn) [Example 40-52, Cis or trans 1-{4-[(4-chlorophenyl)amino]-1-(cyanomethyl)cyclohexyl}-3-[(4-fluorophenyl)amino]-1H-pyrazole-4-carboxamide] | 0.6 | 20 |  | 
14 | N#CCC1(n2cc(C(N)=O)c(Nc3ccc(F)cc3)n2)CCC(Nc2ccc(Cl)cc2)CC1 (stereo not drawn) [Example 40-53, Cis or trans 1-{4-[(4-chlorophenyl)amino]-1-(cyanomethyl)cyclohexyl}-3-[(4-fluorophenyl)amino]-1H-pyrazole-4-carboxamide] | 400 | > 1500 |  | 
15 | N#CCC1(n2cc(C(N)=O)c(Nc3ccnc(F)c3)n2)CCC(N2CCc3ccccc32)CC1 (stereo not drawn) [Example 40-54, Cis or trans 1-[1-(cyanomethyl)-4-(2,3-dihydro-1H-indol-1-yl)cyclohexyl]-3-[(2-fluoropyridin-4-yl)amino]-1H-pyrazole-4-carboxamide] | 0.9 | 24 |  | 
16 | N#CCC1(n2cc(C(N)=O)c(Nc3ccnc(F)c3)n2)CCC(Nc2cccc(F)c2)CC1 (stereo not drawn) [Example 40-55, Cis or trans 1-{1-(cyanomethyl)-4-[(3-fluorophenyl)amino]cyclohexyl}-3-[(2-fluoropyridin-4-yl)amino]-1H-pyrazole-4-carboxamide] | 13 | 409 |  | 
17 | N#CCC1(n2cc(C(N)=O)c(Nc3ccc(S(=O)(=O)C(F)F)cc3)n2)CCC(NC2CCCCC2)CC1 (stereo not drawn) [Example 40-57, Cis or trans 1-[1-(cyanomethyl)-4-(cyclohexylamino)cyclohexyl]-3-({4-[(difluoromethyl)sulfonyl]phenyl}amino)-1H-pyrazole-4-carboxamide] |  | > 1500 | 415 | 
18 | N#CCC1(n2cc(C(N)=O)c(Nc3ccc(F)cc3)n2)CCC(Nc2ccccc2F)CC1 (stereo not drawn) [Example 40-58, Cis or trans 1-{1-(cyanomethyl)-4-[(2-fluorophenyl)amino]cyclohexyl}-3-[(4-fluorophenyl)amino]-1H-pyrazole-4-carboxamide] | 0.2 | 7 |  | 
19 | N#CCC1(n2cc(C(N)=O)c(Nc3ccc(F)cc3)n2)CCC(Nc2ccccc2F)CC1 (stereo not drawn) [Example 40-60, Cis or trans 1-{1-(cyanomethyl)-4-[(2-fluorophenyl)amino]cyclohexyl}-3-[(4-fluorophenyl)amino]-1H-pyrazole-4-carboxamide] | 45 | 758 |  | 
20 | N#CCC1(n2cc(C(N)=O)c(Nc3ccnc(F)c3)n2)CCC(Nc2ccc(Cl)cc2)CC1 (stereo not drawn) [Example 40-61, Cis or trans 1-{4-[(4-chlorophenyl)amino]-1-(cyanomethyl)cyclohexyl}-3-[(2-fluoropyridin-4-yl)amino]-1H-pyrazole-4-carboxamide] | 0.06 | 3 |  | 
21 | N#CCC1(n2cc(C(N)=O)c(Nc3ccnc(F)c3)n2)CCC(Nc2cccc(Cl)c2)CC1 (stereo not drawn) [Example 40-62, Cis or trans 1-{4-[(3-chlorophenyl)amino]-1-(cyanomethyl)cyclohexyl}-3-[(2-fluoropyridin-4-yl)amino]-1H-pyrazole-4-carboxamide] | 38 | 832 |  | 
22 | N#CCC1(n2cc(C(N)=O)c(Nc3ccnc(F)c3)n2)CCC(Nc2cc(F)ccc2F)CC1 (stereo not drawn) [Example 40-63, Cis or trans 1-{1-(cyanomethyl)-4-[(2,5-difluorophenyl)amino]cyclohexyl}-3-[(2-fluoropyridin-4-yl)amino]-1H-pyrazole-4-carboxamide] | 0.03 | 1 |  | 
23 | N#CCC1(n2cc(C(N)=O)c(Nc3ccnc(F)c3)n2)CCC(Nc2cccc(F)c2)CC1 (stereo not drawn) [Example 40-64, Cis or trans 1-{1-(cyanomethyl)-4-[(3-fluorophenyl)amino]cyclohexyl}-3-[(2-fluoropyridin-4-yl)amino]-1H-pyrazole-4-carboxamide] | 0.05 | 2 |  | 
24 | N#CCC1(n2cc(C(N)=O)c(Nc3ccc(S(=O)(=O)C(F)F)cc3)n2)CCC(NC2CCOCC2)CC1 (stereo not drawn) [Example 40-66, Cis or trans 1-[1-(cyanomethyl)-4-(tetrahydro-2H-pyran-4-ylamino)cyclohexyl]-3-({4-[(difluoromethyl)sulfonyl]phenyl}amino)-1H-pyrazole-4-carboxamide] | 344 | > 1500 |  | 
25 | N#CCC1(n2cc(C(N)=O)c(Nc3ccc(S(=O)(=O)C(F)F)cc3)n2)CCC(N2CCC(O)CC2)CC1 (stereo not drawn) [Example 40-67, Cis or trans 1-[1-(cyanomethyl)-4-(4-hydroxypiperidin-1-yl)cyclohexyl]-3-({4-[(difluoromethyl)sulfonyl]phenyl}amino)-1H-pyrazole-4-carboxamide] | 37 | 773 |  | 
26 | N#CCC1(n2cc(C(N)=O)c(Nc3ccc(F)cc3)n2)CCC(NCC2CC2)CC1 (stereo not drawn) [Example 40-69, Cis or trans 1-{1-(cyanomethyl)-4-[(cyclopropylmethyl)amino]cyclohexyl}-3-[(4-fluorophenyl)amino]-1H-pyrazole-4-carboxamide] | 9 | 667 |  | 
27 | N#CCC1(n2cc(C(N)=O)c(Nc3ccc(F)cc3)n2)CCC(N2CCC(F)(F)CC2)CC1 (stereo not drawn) [Example 40-70, Cis or trans 1-[1-(cyanomethyl)-4-(4,4-difluoropiperidin-1-yl)cyclohexyl]-3-[(4-fluorophenyl)amino]-1H-pyrazole-4-carboxamide] | 0.2 | 9 |  | 
28 | COCCNC1CCC(CC#N)(n2cc(C(N)=O)c(Nc3ccc(F)cc3)n2)CC1 (stereo not drawn) [Example 40-71, Cis or trans 1-{1-(cyanomethyl)-4-[(2-methoxyethyl)amino]cyclohexyl}-3-[(4-fluorophenyl)amino]-1H-pyrazole-4-carboxamide] | 24 | 814 |  | 
